The values that follow come from paper PMC7497625, “Machine-Vision-Enabled Salt Dissolution Analysis” (Analytical Chemistry, 2020).

Converted amounts (≈) assume the structure as drawn. Marks after values point to notes of the source that are not given here.

A short description of data set [1]: Machine-vision-based single-particle analysis (SPA) solubility measurement, pH-solubility profile. It is filed as physicochemical. How it is done:
The SPA measurements were carried out as already previously described by Svanbäck et al. and Štukelj et al.[17],[19],[20] Briefly, the two main components of the SPA method are the flow-through setup and the analysis software. The flow-through setup enables trapping and machine-vision tracking of drug particles under steady flow–sink–conditions. The average measurement time is 5 min. The captured images are then analyzed using custom-made software, which is capable of semiautomatic particle recognition and tracking of the individual particle morphology throughout the measurement. The decrease in size, under sink conditions, according to Noyes and Whitney, is directly proportional to the equilibrium solubility of the compound. In this way, the solubility data from the images is extracted. Depending on the number of particles, the reported solubility values are an average of up to several hundred individual particles. For in-depth description and visuals, readers are directed to the three original papers cited above.

A short description of data set [2]: Miniaturized shake-flask (SF) experiment in USP buffers with HPLC-UV, pH measurement and XRPD of remaining solids. It is filed as physicochemical. How it is done:
For NAP, both phosphate and borate buffers were used at pH 8.0. […] At 48, 72, and 96 h the rotation was stopped, pHs were measured, and samples were centrifuged at constant temperature and 21 100g for 15 min prior to sampling of the supernatant. The supernatants were appropriately diluted and analyzed with reverse-phase HPLC-UV. After 96 h, the solids were extracted and analyzed using XRPD. […] Drug concentration in the supernatants was determined using an Agilent High Performance Liquid Chromatography (HPLC) 1260 system (Agilent Technologies, Germany) coupled with a Phenomenex Gemini NX-C18, 3 μm, 100 × 4.6 mm column (Phenomenex, Torrace, CA). The temperature of the column was set to 30 °C. The mobile phase was 0.2% H3PO4:acetonitrile (40:60, v:v for DIC and 50:50, v:v for NAP) with a flow rate of 1 mL/min. The injection volume was 20 μL, and detection was performed at 276 nm for DIC and 254 nm for NAP. Standard solutions of DIC and NAP were prepared in 0.2% H3PO4:acetonitrile (50:50, v:v) and analyzed with HPLC-UV to construct the calibration curve. […] To determine the solid-state form of the initial samples, XRPD diffractograms were recorded with an Aeris diffractometer (Malvern Panalytical B.V., Almelo, The Netherlands) using Cu Kα radiation (λ = 1.540598 Å) and a divergence slit of 0.76 mm. […] Measurements were performed in triplicate with independent samples. Additional measurements using XRPD were performed for the remaining solids after the 96 h miniaturized SF experiments.

For data set [3] the following is noted: cited from earlier work.
The mark [4] stands for this setting: 0.05 M USP buffer Borate pH 8.0.
The mark [5] stands for this setting: 0.05 M USP buffer Borate pH 9.0.
Setting [6] is: 0.05 M USP buffer Phosphate pH 6.0.
[7] abbreviates: 0.05 M USP buffer Phosphate pH 7.0.
Setting [8] is: 0.05 M USP buffer Phtalate pH 3.0.
[9] abbreviates: 0.05 M USP buffer Phtalate pH 4.0.
Setting [10] is: 0.05 M USP buffer Phtalate pH 5.0.
The mark [11] stands for this setting: starting material free acid, after 96 h.

For the compound `O=C(O)Cc1ccccc1Nc1c(Cl)cccc1Cl` [diclofenac sodium], the “pHmax′ SPA (apparent pHmax)” value in data set [1] (intersect of the two regions of the SPA pH-solubility profile, started with anhydrous salt) is 7.35. In data set [1] (linear extrapolation of pH-corrected SPA values of free acid to the SF-determined solubility of the salt (Figure 2b / 5b)), the pHmax is listed as 7.98. Moreover, the “SPA solubility upon disproportionation compared to the free acid” value in data set [1] (region below pH 8) is reported as “higher solubility upon disproportionation”. For the same compound, the “solid-state form at end of SF experiment (XRPD)” value (“solid-state form at end” below) in data set [2] (starting material anhydrous salt, initial pH 6.0 and 8.0) was “converted into its hydrate form”; in data set [2] (starting material salt, initial pH 2.0 and 4.0), “converted into a free acid form”. For the same compound, in data set [3], the pHmax lit. entry is given as “∼8 ^a^, ^e”.

By solubility is commonly meant how much of the substance goes into solution per volume. Take `O=C(O)Cc1ccccc1Nc1c(Cl)cccc1Cl` [diclofenac, Diclofenac]: in data set [1] (read-out: S0 SPA (intrinsic solubility)), the solubility at 5 min amounted to 0.6 ± 0.3 µg/mL (≈ 2.03 µM). In addition, the “Measured pH of miniaturized SF experiment” value (from here on “Measured pH”) in data set [2] (setting [4]) was 7.0; in data set [2] (setting [5]), 7.8; in data set [2] (0.05 M USP buffer HCl pH 2.0) it was 2.0; in data set [2] (setting [6]), 6.0; in data set [2] (setting [7]), 6.9; in data set [2] (setting [8]), 3.00. The “Measured pH” value in data set [2] (setting [9]) was determined as 4.0; in data set [2] (setting [10]) it was 4.9. The “solid-state form at end” value in data set [2] (setting [11]) was “remained in the same form throughout the experiment”.

Regarding `COc1ccc2cc([C@H](C)C(=O)O)ccc2c1` [naproxen sodium], the “solid-state form at end” value in data set [2] (starting material anhydrous salt, pH 8.0, borate and phosphate buffer) is “converted into its hydrate form”; in data set [2] (starting material salt, initial pHs 2.0, 4.0 and 6.0), “converted into a free acid”. In data set [3], the pHmax lit. entry is “∼8 ^c”.

Regarding `COc1ccc2cc([C@H](C)C(=O)O)ccc2c1` [naproxen, Naproxen], the “Measured pH” value is recorded as 6.0 in data set [2] (setting [4]); 6.8 in data set [2] (setting [5]); 1.9 in data set [2] (0.05 M USP buffer HCl pH 2.0); 5.8 in data set [2] (setting [6]); 6.6 in data set [2] (setting [7]); 6.9 in data set [2] (0.05 M USP buffer Phosphate pH 8.0). Besides, the “Measured pH” value was found to be 3.0 in data set [2] (setting [8]), 4.1 in data set [2] (setting [9]) and 5.0 in data set [2] (setting [10]). For the same compound, the “solid-state form at end” value in data set [2] (setting [11]) is on record as “the same form remained throughout the experiment”.
